# Test system: HDQ-P1
# Assay: normalised response (% of control), CellTiter-Glo; higher = more viable cells (100 = DMSO, 0 = benzethonium chloride kill control)
# Details: incubation time: 72 h
# Outline: (§1)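 Breast cancer cell lines, seeded at 20 µl suspension per well, were incubated for 72 h in 384-well plates containing compound at 5 concentrations. These concentrations rose in 10-fold steps over a 10,000-fold range set for each compound. CellTox Green fluorescence (485/520 nm) was read, then CellTiter-Glo luminescence after 10 min at room temperature, and each plate was normalised to 0.1 % DMSO (100) and a positive kill control (0). Values are normalised signals, each at one concentration.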
row,SMILES,normalised response
1,COc1cc(Nc2ncc(F)c(Nc3ccc4c(n3)N(COP(=O)(O)O)C(=O)C(C)(C)O4)n2)cc(OC)c1OC [Fostamatinib] (25 nM),108%
2,CC[C@@H]1C(=O)N(C)c2cnc(Nc3ccc(C(=O)N[C@H]4CC[C@H](N5CCN(CC6CC6)CC5)CC4)cc3OC)nc2N1C(C)C [Volasertib] (10 nM),86.3%

# Test system: Hs578T
# Assay: as above
# Details: incubation time: 72 h
# Outline: as §1
row,SMILES,normalised response
1,CC(C)(C)Cn1c(N)nc2ccc(-c3[nH]c(C(C)(C)C)nc3-c3ccc(F)cc3)nc21 (100 nM),102%
2,CC[C@H](CC#N)OC(=O)N[C@@H](C)c1cccc(NC(=O)Nc2ccc(-c3cnco3)c(OC)c2)c1 [AVN944] (100 nM),111%
3,CC(C)C[C@H](NC(=O)[C@H](CCc1ccccc1)NC(=O)CN1CCOCC1)C(=O)N[C@@H](Cc1ccccc1)C(=O)N[C@@H](CC(C)C)C(=O)[C@@]1(C)CO1 [Carfilzomib] (10 nM),63.5%
4,CCc1cnn2c(NCc3ccc[n+]([O-])c3)cc(N3CCCC[C@H]3CCO)nc12 [Dinaciclib] (10 nM),79.9%
5,CC(C)C(=O)Nc1ccc([N+](=O)[O-])c(C(F)(F)F)c1 [Flutamide] (100 nM),98%
6,COc1cc2c(Oc3ccc(NC(=O)C4(C(=O)Nc5ccc(F)cc5)CC4)cc3F)ccnc2cc1OCCCN1CCOCC1 [Foretinib] (10 nM),99.2%
7,COc1cc(Nc2ncc(F)c(Nc3ccc4c(n3)N(COP(=O)(O)O)C(=O)C(C)(C)O4)n2)cc(OC)c1OC [Fostamatinib] (25 nM),93.4%
8,CC[C@@H]1C(=O)N(C)c2cnc(Nc3ccc(C(=O)N[C@H]4CC[C@H](N5CCN(CC6CC6)CC5)CC4)cc3OC)nc2N1C(C)C [Volasertib] (10 nM),96.3%

# Test system: HCC1937
# Assay: as above
# Details: incubation time: 72 h
# Outline: as §1
row,SMILES,normalised response
1,CC(C)(C)Cn1c(N)nc2ccc(-c3[nH]c(C(C)(C)C)nc3-c3ccc(F)cc3)nc21 (100 nM),92.8%
2,CC[C@H](CC#N)OC(=O)N[C@@H](C)c1cccc(NC(=O)Nc2ccc(-c3cnco3)c(OC)c2)c1 [AVN944] (100 nM),90.2%
3,CC(C)C[C@H](NC(=O)[C@H](CCc1ccccc1)NC(=O)CN1CCOCC1)C(=O)N[C@@H](Cc1ccccc1)C(=O)N[C@@H](CC(C)C)C(=O)[C@@]1(C)CO1 [Carfilzomib] (10 nM),77%
4,CCc1cnn2c(NCc3ccc[n+]([O-])c3)cc(N3CCCC[C@H]3CCO)nc12 [Dinaciclib] (10 nM),91.2%
5,CC(C)C(=O)Nc1ccc([N+](=O)[O-])c(C(F)(F)F)c1 [Flutamide] (100 nM),94.9%
6,COc1cc2c(Oc3ccc(NC(=O)C4(C(=O)Nc5ccc(F)cc5)CC4)cc3F)ccnc2cc1OCCCN1CCOCC1 [Foretinib] (10 nM),94.7%
7,COc1cc(Nc2ncc(F)c(Nc3ccc4c(n3)N(COP(=O)(O)O)C(=O)C(C)(C)O4)n2)cc(OC)c1OC [Fostamatinib] (25 nM),99.5%
8,CC[C@@H]1C(=O)N(C)c2cnc(Nc3ccc(C(=O)N[C@H]4CC[C@H](N5CCN(CC6CC6)CC5)CC4)cc3OC)nc2N1C(C)C [Volasertib] (10 nM),83%

# Test system: HCC1599
# Assay: as above
# Details: incubation time: 72 h
# Outline: as §1
row,SMILES,normalised response
1,CC(C)(C)Cn1c(N)nc2ccc(-c3[nH]c(C(C)(C)C)nc3-c3ccc(F)cc3)nc21 (100 nM),102%
2,CC[C@H](CC#N)OC(=O)N[C@@H](C)c1cccc(NC(=O)Nc2ccc(-c3cnco3)c(OC)c2)c1 [AVN944] (100 nM),82.8%
3,CC(C)C[C@H](NC(=O)[C@H](CCc1ccccc1)NC(=O)CN1CCOCC1)C(=O)N[C@@H](Cc1ccccc1)C(=O)N[C@@H](CC(C)C)C(=O)[C@@]1(C)CO1 [Carfilzomib] (10 nM),104%
4,CCc1cnn2c(NCc3ccc[n+]([O-])c3)cc(N3CCCC[C@H]3CCO)nc12 [Dinaciclib] (10 nM),75.8%
5,CC(C)C(=O)Nc1ccc([N+](=O)[O-])c(C(F)(F)F)c1 [Flutamide] (100 nM),111%
6,COc1cc2c(Oc3ccc(NC(=O)C4(C(=O)Nc5ccc(F)cc5)CC4)cc3F)ccnc2cc1OCCCN1CCOCC1 [Foretinib] (10 nM),112%
7,COc1cc(Nc2ncc(F)c(Nc3ccc4c(n3)N(COP(=O)(O)O)C(=O)C(C)(C)O4)n2)cc(OC)c1OC [Fostamatinib] (25 nM),96%
8,CC[C@@H]1C(=O)N(C)c2cnc(Nc3ccc(C(=O)N[C@H]4CC[C@H](N5CCN(CC6CC6)CC5)CC4)cc3OC)nc2N1C(C)C [Volasertib] (10 nM),106%

# Test system: HCC1143
# Assay: as above
# Details: incubation time: 72 h
# Outline: as §1
row,SMILES,normalised response
1,CC(C)(C)Cn1c(N)nc2ccc(-c3[nH]c(C(C)(C)C)nc3-c3ccc(F)cc3)nc21 (100 nM),110%
2,CC[C@H](CC#N)OC(=O)N[C@@H](C)c1cccc(NC(=O)Nc2ccc(-c3cnco3)c(OC)c2)c1 [AVN944] (100 nM),92.2%
3,CC(C)C[C@H](NC(=O)[C@H](CCc1ccccc1)NC(=O)CN1CCOCC1)C(=O)N[C@@H](Cc1ccccc1)C(=O)N[C@@H](CC(C)C)C(=O)[C@@]1(C)CO1 [Carfilzomib] (10 nM),44.4%
4,CCc1cnn2c(NCc3ccc[n+]([O-])c3)cc(N3CCCC[C@H]3CCO)nc12 [Dinaciclib] (10 nM),68.5%
5,CC(C)C(=O)Nc1ccc([N+](=O)[O-])c(C(F)(F)F)c1 [Flutamide] (100 nM),103%
6,COc1cc2c(Oc3ccc(NC(=O)C4(C(=O)Nc5ccc(F)cc5)CC4)cc3F)ccnc2cc1OCCCN1CCOCC1 [Foretinib] (10 nM),99.6%
7,COc1cc(Nc2ncc(F)c(Nc3ccc4c(n3)N(COP(=O)(O)O)C(=O)C(C)(C)O4)n2)cc(OC)c1OC [Fostamatinib] (25 nM),101%
8,CC[C@@H]1C(=O)N(C)c2cnc(Nc3ccc(C(=O)N[C@H]4CC[C@H](N5CCN(CC6CC6)CC5)CC4)cc3OC)nc2N1C(C)C [Volasertib] (10 nM),82%

# Test system: BT-474
# Assay: as above
# Details: incubation time: 72 h
# Outline: as §1
row,SMILES,normalised response
1,CC(C)(C)Cn1c(N)nc2ccc(-c3[nH]c(C(C)(C)C)nc3-c3ccc(F)cc3)nc21 (100 nM),102%
2,CC[C@H](CC#N)OC(=O)N[C@@H](C)c1cccc(NC(=O)Nc2ccc(-c3cnco3)c(OC)c2)c1 [AVN944] (100 nM),86.2%
3,CC(C)C[C@H](NC(=O)[C@H](CCc1ccccc1)NC(=O)CN1CCOCC1)C(=O)N[C@@H](Cc1ccccc1)C(=O)N[C@@H](CC(C)C)C(=O)[C@@]1(C)CO1 [Carfilzomib] (10 nM),70.3%

# From the supplement of paper PMC4862054
